In PMC6272399, “Anti-Proliferative Effect and Induction of Apoptosis in Androgen-Independent Human Prostate Cancer Cells by 1,5-Bis(2-hydroxyphenyl)-1,4-pentadiene-3-one” (Molecules, 2015):
Entries after “also recorded” stand apart in the source; their conditions may differ.

Experiments:
DU 145 cells = assay: AO/EB double staining, morphology and quantification of apoptotic and necrotic cells, DU 145; type: cell-based, human; conditions: for necrotic cells: approximate
Procedure: (§1) Cell morphological changes were assessed by the differential staining DNA-intercalate fluorescent dyes acridine orange (AO) and ethidium bromide (EB). Cells (3 × 10^5) were seeded in a 6-well tissue culture plates, treated with MS17 at various concentrations (EC50, 2 × EC50, 3 × EC50) and incubated for 12, 24, 48 and 72 h time intervals. After incubation, cell pellets were suspended in 50 µL of cold PBS. To each samples, 10 µL of cell suspension was added with 1 µL of AO/EB dye mixture (1 part of 100 µg/mL of AO in PBS; 1 part of 100 µg/mL of EB in PBS) prior to microscopic examination. Ten microliter of the cell suspension mixed with the dye mixture was placed on a glass microscopic slide covered with a cover slip and was observed and photographed with a fluorescence microscope using a fluorescein filter (BX41, Olympus, Center Valley, PA, USA). A minimum of 200 total targeted cells were counted per sample and the percentage of cells from each population (viable, early apoptosis, late apoptosis and necrosis) was calculated. The experiment was conducted in triplicates. Untreated cells containing DMSO alone were used as negative control.

[1] = tested on: caspase-3 activity in PC-3 cells; assay: Caspase-3 colorimetric activity assay, PC-3; type: cell-based, human
Procedure: (§2) Caspase-3 activity was determined using the caspase-3 colorimetric assay kit (Sigma-Aldrich) according to manufacturer’s protocol. The assay is based on spectrophotometric detection of p-nitroanilide (pNA) a colored molecule, after its cleavage from the labeled substrate DEVD-pNA by the activity of caspase-3 enzyme. PC-3 and DU 145 cells were treated with MS17 at different concentrations (EC50, 2 × EC50, 3 × EC50) at various time points, 6, 12, 24, 48 and 72 h as appropriate. Following treatment, cells were washed with PBS and suspended with lysis buffer (50 mM HEPES, pH 7.4, 5 mM CHAPS, 5 mM DTT) for 30 min on ice at the concentration of 10^7 cells per 100 µL buffer. Cells were then spun for 30 min at 16,000× g, 4 °C. Protein lysate concentrations were measured based on the Bradford assay method using the Cayman Chemical protein determination kit (Cayman Chemical Company, Ann Arbor, MI, USA) based on the manufacturer’s protocol. Assay was performed on a 96-well micro-titer plate by adding equal amount of protein lysate (~100 µg) into wells containing the assay buffer (20 mM HEPES pH 7.4, 0.1% CHAPS, 5 mM DTT, 2 mM EDTA). Reaction was started by the addition of 10 µL of substrate Ac-DEVD-pNA (2 mM). The effect of Ac-DEVD-CHO, a caspase-3 inhibitor was also studied simultaneously on caspase-3 activity. Ten microliter of the inhibitor (200 µM) was added into the wells containing the protein lysate, assay buffer and the substrate. Caspase-3 activity was measured upon the release of pNA molecule, a pale yellow colored product using the micro-plate ELISA reader (Bio-Rad) at the wavelength of 405 nm. Relative caspase-3 activity was expressed as absorbance of enzyme activity compared with the control (untreated cells/DMSO only) based on the equation below: Relative caspase 3 activity= Absorbance of treated cells /Absorbance of control

PC-3 cells [2] = assay: AO/EB double staining, morphology and quantification of apoptotic and necrotic cells, PC-3; type: cell-based, human
Procedure: as §1

prostate cancer cells = tested on: prostate cancer cells; parameters: method as in PMID 21796654; conditions: compound labeled ca27; cited from earlier work
[3] = tested on: androgen-dependent prostate cancer cells; parameters: method as in PMID 21796654; conditions: cited from earlier work
[4] = tested on: caspase-3 activity in DU 145 cells; assay: Caspase-3 colorimetric activity assay, DU 145; type: cell-based, human
Procedure: as §2

PC-3 cells [5] = assay: Free nucleosome detection (Cell Death Detection ELISA), PC-3; type: cell-based, human; conditions: PC-3, 9.0 and 13.5 µM, 24, 48 and 72 h
Procedure: To confirm the presence of histone-bound DNA fragments (free nucleosomes) in the prostate cancer cells after the treatment of MS17, Cell Death Detection ELISA^PLUS kit (Roche Diagnostics) was used according to the manufacturer’s protocol. Cells were plated on a bottom flat tissue culture plates at a concentration of 10^5 cells per well and incubated for 24 h to allow the cells to adhere. After overnight incubation, MS17 at various concentrations (EC50, 2 × EC50, 3 × EC50) were added to a final volume of 100 µL per well and further incubated for 24, 48 and 72 h. The plate was centrifuged at 600 rpm at 4 °C for 10 min. The cell pellet containing the apoptotic bodies was resuspended in lysis buffer and incubated for 30 min at room temperature. […] The amount of nucleosomes retained by the POD in the immunocomplex, corresponding to the extent of apoptosis and necrosis, was determined with 2,2'-azinobis-3-ethyl-benzothiazoline-6-sulfonic acid (ABTS) as substrate using a micro-plate ELISA reader at a wavelength of 405/490 nm. The amount of enrichment of mono- and oligonucleosomes released into the cytoplasm was calculated using the following formula: Enrichment factor= Absorbance of sample/Absorbance of control

Structure (SMILES): O=C(C=Cc1ccccc1O)C=Cc1ccccc1O [MS17, 1,5-bis(2-hydroxyphenyl)-1,4-pentadiene-3-one]
- necrotic cells (DU 145 cells; DU 145, 4.2 µM, 48 h): approximately 10%
- morphological observation of cell nuclei (AO/EB) (DU 145 cells; DU 145, MS17-treated vs untreated): typical signs of apoptosis such as cell shrinkage, formation of apoptotic bodies and membrane blebbing
- necrotic cells (DU 145 cells; DU 145, all examined doses, 24 h): < 5%
- relative caspase-3 activity (treated vs untreated) ([1]; PC-3, 4.5, 9.0 and 13.5 µM, 48 h): increased significantly; also recorded: significant increase of caspase-3 activity
- relative caspase-3 activity, differences between concentrations ([1]; PC-3, 12, 24 and 72 h): no significant differences of caspase-3 activity
- morphological observation of cell nuclei (AO/EB) (PC-3 cells [2]; PC-3, MS17-treated vs untreated): typical signs of apoptosis such as cell shrinkage, formation of apoptotic bodies and membrane blebbing
- necrotic cells (PC-3 cells [2]; PC-3, all three doses, 12 and 24 h): less than 5%
- growth inhibition of prostate cancer cells (prostate cancer cells): able to inhibit the growth of prostate cancer cells at a concentration below that typically used for curcumin
- anti-androgenic effect [3]: exert anti-androgenic effect
- relative caspase-3 activity, differences between concentrations ([4]; DU 145, 6, 24, 48 and 72 h): no significant differences of caspase-3 activity
- relative caspase-3 activity (treated vs untreated) ([4]; DU 145, 12 h, significant at 8.4 and 12.6 µM compared to 4.2 µM): increased significantly; also recorded: increase in caspase-3 activity
- nucleosomal fragments (enrichment factor) (PC-3 cells [5]): significant increase in nucleosomal fragments
